Reference: patent publication US7829587B2, “Substituted 2-aminotetralin derivatives as selective alpha 2B agonist” (Allergan, Inc., priority 2008, dated 2010)

Key:
Format in all cases: cell-based
bovine α1A receptor = molecular target: T1, bovine α1A receptor (Bos taurus, UniProt P18130); experiment: FLIPR Ca+2 influx assay, α1A; conditions: for EC50: HEK 293 cells stably expressing bovine α1A receptor; for Relative efficacy FLIPR α1A: relative efficacy compared to standard full agonist norepinephrine, HEK 293, bovine α1A
T1 construct: expressed in transfected cells; host or cells: HEK 293
T1 sequence (P18130 1-466): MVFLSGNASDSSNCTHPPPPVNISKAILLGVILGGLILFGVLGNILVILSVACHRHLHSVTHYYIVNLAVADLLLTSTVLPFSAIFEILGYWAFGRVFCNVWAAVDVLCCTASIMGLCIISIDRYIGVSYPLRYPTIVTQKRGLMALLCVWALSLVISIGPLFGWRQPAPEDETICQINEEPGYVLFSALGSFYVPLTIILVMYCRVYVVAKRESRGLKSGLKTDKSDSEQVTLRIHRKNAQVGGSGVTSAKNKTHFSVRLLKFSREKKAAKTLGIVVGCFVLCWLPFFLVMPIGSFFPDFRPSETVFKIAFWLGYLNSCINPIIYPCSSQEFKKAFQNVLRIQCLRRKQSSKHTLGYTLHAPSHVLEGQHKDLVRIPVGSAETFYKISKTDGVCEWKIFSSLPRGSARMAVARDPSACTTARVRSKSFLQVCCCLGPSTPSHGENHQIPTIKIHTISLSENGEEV
Method: (§1) The compounds disclosed herein are agonists of alpha 2B/2C adrenergic receptors. […] This assay is adequate for monitoring the intracellular Ca^2+ mobilization from fluorescent reading to evaluate receptor agonists.
(§2) FLIPR Ca+2 Influx Assay: HEK 293 cells stably expressing the bovine α1A receptor, the rat α1B receptor, the human α2A receptor and the chimeric G protein Gqi5, the human α2C receptor and the chimeric G protein Gqi5 and the mouse α2B receptor and the Gα16 protein were plated in poly-D-lysine coated 384 well plates at 15,000-25,000 cells per well and grown overnight in DMEM supplemented with 10% fetal bovine serum. For FLIPR (fluorometric image plate reader) evaluation, cells were washed 2-4 times with HBSS/HEPES Buffer (1× Hanks Buffered Salt Solution, 20 mM HEPES<pH 7.4) prior to the addition of Fluo-4-AM (4 uM Fluo-4-AM, 0.04% pluronic acid in HBSS/HEPES Buffer), a calcium-sensitive dye. Cells were loaded with Dye for 40 minutes at 30° C., then washed 4-8 times with HBSS/HEPES Buffer to remove excess dye. Cells were preincubated at 37° C. for 3 minutes prior to placement into the FLIPR instrument. The reaction was carried out at 37° C. and was initiated by the addition of the appropriate dilutions of compounds. The transient calcium was captured and the peak height of the calcium curve determined and utilized for calculation of EC50 and efficacy using ActivityBase. Data is stored in the ActivityBase database under the unique identifier “Test Occasion”, which reflects the results of an assay run on a particular date and the individual responsible for the assay. Norepinephrine was the standard full agonist for evaluating alpha1 and alpha2 receptor activity.

rat α1B receptor = molecular target: T2, rat α1B receptor (Rattus norvegicus, UniProt P15823); experiment: FLIPR Ca+2 influx assay, α1B; conditions: for EC50: HEK 293 cells stably expressing rat α1B receptor; for Relative efficacy FLIPR α1B: relative efficacy compared to standard full agonist norepinephrine, HEK 293, rat α1B
T2 construct: expressed in transfected cells; host or cells: HEK 293
T2 sequence (P15823 1-515): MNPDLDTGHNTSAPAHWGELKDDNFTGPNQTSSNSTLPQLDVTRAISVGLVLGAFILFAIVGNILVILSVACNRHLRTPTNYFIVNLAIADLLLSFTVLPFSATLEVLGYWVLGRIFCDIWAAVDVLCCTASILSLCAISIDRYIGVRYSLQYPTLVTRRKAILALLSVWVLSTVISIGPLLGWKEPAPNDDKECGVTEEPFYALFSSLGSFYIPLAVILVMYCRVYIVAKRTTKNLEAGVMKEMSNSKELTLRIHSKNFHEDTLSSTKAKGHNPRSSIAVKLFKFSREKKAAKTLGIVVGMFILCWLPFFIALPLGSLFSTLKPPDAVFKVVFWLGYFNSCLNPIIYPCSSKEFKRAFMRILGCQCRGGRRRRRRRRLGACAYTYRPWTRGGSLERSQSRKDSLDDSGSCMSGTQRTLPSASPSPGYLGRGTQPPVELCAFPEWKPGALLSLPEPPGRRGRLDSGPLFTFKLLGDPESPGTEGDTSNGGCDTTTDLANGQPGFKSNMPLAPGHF
Method: as §1, §2

mouse α2B receptor = molecular target: T3, mouse α2B receptor (Mus musculus, UniProt P30545); experiment: FLIPR Ca+2 influx assay, α2B; conditions: for EC50: HEK 293 cells stably expressing mouse α2B receptor and Gα16 protein; for Relative efficacy FLIPR α2B: relative efficacy compared to standard full agonist norepinephrine, HEK 293, mouse α2B/Gα16
T3 construct: expressed in transfected cells; host or cells: HEK 293
T3 sequence (P30545 1-453): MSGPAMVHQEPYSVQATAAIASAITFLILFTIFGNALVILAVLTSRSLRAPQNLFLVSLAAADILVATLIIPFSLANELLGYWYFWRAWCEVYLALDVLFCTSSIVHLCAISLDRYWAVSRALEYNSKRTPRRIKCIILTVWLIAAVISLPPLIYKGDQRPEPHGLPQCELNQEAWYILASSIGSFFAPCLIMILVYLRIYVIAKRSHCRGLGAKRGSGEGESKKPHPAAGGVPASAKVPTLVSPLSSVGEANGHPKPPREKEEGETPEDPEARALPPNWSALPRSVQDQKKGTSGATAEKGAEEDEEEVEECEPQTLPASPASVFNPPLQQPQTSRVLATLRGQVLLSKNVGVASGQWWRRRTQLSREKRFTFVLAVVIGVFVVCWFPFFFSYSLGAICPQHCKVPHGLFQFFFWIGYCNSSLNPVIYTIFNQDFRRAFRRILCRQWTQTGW
Method: as §1, §2

human α2A receptor = molecular target: T4, human α2A receptor (Homo sapiens, UniProt P08913); experiment: FLIPR Ca+2 influx assay, α2A; conditions: for EC50: HEK 293 cells stably expressing human α2A receptor and chimeric G protein Gqi5; for Relative efficacy FLIPR α2A: relative efficacy compared to standard full agonist norepinephrine, HEK 293, human α2A/Gqi5
T4 construct: expressed in transfected cells; host or cells: HEK 293
T4 sequence (P08913 1-465): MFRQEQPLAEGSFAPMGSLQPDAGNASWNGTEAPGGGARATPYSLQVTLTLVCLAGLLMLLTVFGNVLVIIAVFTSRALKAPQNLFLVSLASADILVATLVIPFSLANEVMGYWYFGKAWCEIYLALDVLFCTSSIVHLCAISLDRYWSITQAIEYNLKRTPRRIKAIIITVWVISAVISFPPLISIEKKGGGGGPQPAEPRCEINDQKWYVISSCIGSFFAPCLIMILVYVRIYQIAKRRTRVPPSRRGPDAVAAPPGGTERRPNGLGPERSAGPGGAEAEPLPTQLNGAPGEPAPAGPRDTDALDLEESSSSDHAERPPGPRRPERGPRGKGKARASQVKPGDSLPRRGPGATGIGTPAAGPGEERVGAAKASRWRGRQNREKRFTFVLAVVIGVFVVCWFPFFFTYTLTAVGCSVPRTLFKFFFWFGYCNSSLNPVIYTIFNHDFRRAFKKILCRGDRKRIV
Method: as §1, §2

human α2C receptor = molecular target: T5, human α2C receptor (Homo sapiens, UniProt P18825); experiment: FLIPR Ca+2 influx assay, α2C; conditions: for EC50: HEK 293 cells stably expressing human α2C receptor and chimeric G protein Gqi5; for Relative efficacy FLIPR α2C: relative efficacy compared to standard full agonist norepinephrine, HEK 293, human α2C/Gqi5
T5 construct: expressed in transfected cells; host or cells: HEK 293
T5 sequence (P18825 1-462): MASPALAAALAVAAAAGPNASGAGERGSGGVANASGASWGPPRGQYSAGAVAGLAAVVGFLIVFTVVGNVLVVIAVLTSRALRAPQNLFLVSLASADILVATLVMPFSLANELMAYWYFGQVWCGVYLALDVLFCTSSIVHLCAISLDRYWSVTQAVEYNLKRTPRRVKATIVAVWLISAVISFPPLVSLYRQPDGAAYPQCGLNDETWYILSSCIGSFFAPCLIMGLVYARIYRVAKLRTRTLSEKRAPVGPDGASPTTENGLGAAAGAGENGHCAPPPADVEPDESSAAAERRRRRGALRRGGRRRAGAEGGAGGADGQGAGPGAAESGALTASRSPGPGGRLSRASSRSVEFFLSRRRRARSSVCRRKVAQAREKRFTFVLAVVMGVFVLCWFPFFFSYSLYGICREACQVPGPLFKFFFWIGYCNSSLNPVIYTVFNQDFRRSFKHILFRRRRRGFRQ
Method: as §1, §2

SMILES	EC50 (bovine α1A receptor)	Relative efficacy FLIPR α1A (bovine α1A receptor)	EC50 (rat α1B receptor)	Relative efficacy FLIPR α1B (rat α1B receptor)	EC50 (mouse α2B receptor)	Relative efficacy FLIPR α2B (mouse α2B receptor)	EC50 (human α2A receptor)	Relative efficacy FLIPR α2A (human α2A receptor)	EC50 (human α2C receptor)	Relative efficacy FLIPR α2C (human α2C receptor)
CCCN(Cc1ccncc1)C1CCc2cccc(OC)c2C1 (centres unmarked)	> 10000 nM	0	> 10000 nM	0	36 nM	1.0	1850 nM	0.22	2150 nM	0.69
CCCN(Cc1ccncc1)[C@@H]1CCc2cccc(O)c2C1	> 10000 nM	0	> 10000 nM	0	4 nM	0.8	> 10000 nM	0	> 10000 nM	0
CCN(Cc1ccncc1)C1CCc2cccc(OC)c2C1 (centres unmarked)	> 10000 nM	0	> 10000 nM	0	78 nM	0.91	203 nM	0.74	253 nM	0.72
CCN(Cc1ccncc1)C1CCc2cccc(O)c2C1 (centres unmarked)		ND (0.1)		ND (0.15)	185 nM	1.08	5500 nM	0.16	6700 nM	0.17
CCN(Cc1cccnc1)C1CCc2cccc(OC)c2C1 (centres unmarked)	> 10000 nM	0	> 10000 nM	0	614 nM	0.26	442 nM	0.51	652 nM	0.52
CCN(Cc1cccnc1)C1CCc2cccc(O)c2C1 (centres unmarked)	4000 nM	0.29		ND (0.36)	873 nM	0.89	4500 nM	0.35		ND (0.43)
CCN(Cc1ccccn1)C1CCc2cccc(OC)c2C1 (centres unmarked)	> 10000 nM	0	> 10000 nM	0	647 nM	0.14	> 10000 nM	0	> 10000 nM	0
CCN(Cc1ccccn1)C1CCc2cccc(O)c2C1 (centres unmarked)	> 10000 nM	0	> 10000 nM	0	733 nM	0.28	> 10000 nM	0	> 10000 nM	0
CCCN(Cc1cccnc1)C1CCc2cccc(OC)c2C1 (centres unmarked)	> 10000 nM	0	> 10000 nM	0	820 nM	0.47	> 1000 nM	0		ND (0.13)
CCCN(Cc1ccccn1)C1CCc2cccc(OC)c2C1 (centres unmarked)	> 10000 nM	0	> 10000 nM	0	363 nM	0.63	> 10000 nM	0	> 10000 nM	0
